# US11253497B2, “Use of derivatives of polyunsaturated fatty acids as medicaments” (Lipopharma Therapeutics, S.L., priority 2009, dated 2022)
# Tests used:
# [1] = system: breast cancer cells MDA-MB-231; assay: Growth of breast cancer cells MDA-MB-231; type: cell-based; conditions: 72 hours of incubation
# Experimental: (§1) For the experiments shown in FIG. 1, cultured human Non Small Cell Lung Cancer cells (A549) in RPMI 1640 were used, supplemented with 10% foetal bovine serum and antibiotics, at 37° C. and 5% CO2. […] After treatment, cell count was performed and the study of the mechanisms involved in the antitumor activity of compounds was evaluated by flow cytometry. […] These values correspond to averages of three independent experiments.
# (§2) These charts show the antitumor efficacy of the compounds of this invention against the growth of breast cancer cells, brain (glioma), and lung cancer. […] The other experimental conditions are identical to those described in the preceding paragraph.
# [2] = system: brain cancer cell (glioma) U118; assay: Brain cancer (glioma) U118 cell growth; type: cell-based; conditions: 72 hours of incubation
# Experimental: For the experiments shown in FIG. 1, cultured human Non Small Cell Lung Cancer cells (A549) in RPMI 1640 were used, supplemented with 10% foetal bovine serum and antibiotics, at 37° C. and 5% CO2. Cells were maintained in culture for 48 hours in the presence or absence of D-PUFAs and PUFAs indicated in Table 2 at a concentration of 250 µM. After treatment, cell count was performed and the study of the mechanisms involved in the antitumor activity of compounds was evaluated by flow cytometry. […] These values correspond to averages of three independent experiments.
# as §2
# lung cancer cells A549 = assay: Growth of lung cancer cells A549 (IC50); type: cell-based, human; conditions: 72 hours of incubation
# Experimental: as §1, §2
# [3] = system: Spontaneously Hypertensive Rats (SHR); assay: Blood pressure of SHR rats (cuff-tail method); type: in vivo, rat; conditions: 200 mg/kg day p.o., 30 days, before treatment 214 mmHg
# Experimental: (§3) In a separate experimental series, it was studied the effect of D-PUFA molecules of the present invention on blood pressure of SHR rats. In these animals both, blood pressure and levels of apolipoprotein AI (apoA-I) were measured. For these experiments Spontaneously Hypertensive Rats (SHR) were treated for 30 days with vehicle (water control) or compounds of the invention (200 mg/kg day, p.o.). At the end of this period, the animals' blood pressure and serum levels of apoA-I were measured. […] For these experiments, non-invasive methods for determining blood pressure (cuff-tail method) and gene expression for apoA-I (RT-PCR) described in the literature (Terés et al., 2008) were used. The usefulness of the molecules of the present invention for the treatment of cardiovascular diseases is reinforced by its capacity for reducing the levels of serum cholesterol and triglycerides (see below).
# (§4) The average values of SHR before treatment were 214 mmHg and 100% respectively.
# [4] = system: apolipoprotein AI (apoA-I); assay: Levels of apoA-I in SHR rats (RT-PCR); type: in vivo, rat; conditions: 200 mg/kg day p.o., 30 days, before treatment 100%
# Experimental: as §3, §4
# P19 cells = assay: NMDA-induced neuronal death in P19 cells; type: cell-based; conditions: NMDA alone 100% death, control without NMDA 0%; negative values = proliferation
# α-synuclein = assay: Expression of α-synuclein in neuronal cultures (cells P19); type: cell-based; conditions: untreated cells 100%
# COX-2 = assay: Expression of COX-2 in LPS-stimulated monocytes in culture; type: cell-based, human; conditions: positive control with LPS 100%
# Source text: FIG. 5A also presents a drawing showing the COX-2/COX-1 relationship as % of control (Y axis) for the following compounds (X-axis): OOA (2-hydroxy-oleic acid), OLA (182A1), OALA (183A1), OGLA (183A2), OARA (204A1), OEPA (205A1), ODHA (226A1). […] The reduction of this factor is directly related to the anti-inflammatory medication. The compounds are the same as in the left pane.
# (§5) Cyclooxygenase (COX) is an enzyme that can bind to membranes, taking certain lipids from there and catalyze its conversion into molecules that can have inflammatory activity. The binding of this enzyme to membrane lipids is due in part to the membrane lipid structure. The increased activity of COX 1 and 2 isoforms has been associated with the etiopathology of a number of inflammatory diseases by […] arachidonic acid metabolism to produce pro-inflammatory lipid mediators. The D-PUFA compounds of the present invention produced a series of cellular signals that alter the metabolism of arachidonic acid and, as a result, they inhibit the activity and expression of COX in monocytes in culture (Table 14 and FIG. 5A). […] For this purpose, C57BL6/J mice were treated with the various derivatives (200 mg/kg, p.o.,) after inducing an inflammatory reaction in them by intraperitoneal injection of 20 μg of bacterial lipopolysaccharide (LPS).
# Inhibition of COX-2 expression in monocytes. Percentages of inhibition (compared to the positive control in the presence of LPS, 100%) of COX-2 protein levels (expression) by the various fatty acid derivatives.
# TNF-α = assay: Production of TNF-α in serum of LPS-injected C57BL6/J mice; type: in vivo; conditions: LPS 20 μg i.p. (100%), 200 mg/kg p.o.
# Source text: as §5
# [5] = Serum cholesterol, triglycerides and glucose in SHR rats (colorimetric); type: in vivo, rat; conditions: 200 mg/kg daily p.o., 28 days, untreated rats 100%
# Experimental: In a separate experimental series, SHR rats were treated with various compounds of the present invention (200 mg/kg daily, 28 days, p.o.) and the levels of cholesterol, triglycerides and glucose in serum were measured by colorimetric methods. It was observed that these compounds induce significant (and in many cases marked) reductions in the levels of these metabolites (Table 16).
# Values are expressed as percent, and in untreated (control) rats values were always considered as 100%.
Structure (SMILES),IC50 [1] [µM],IC50 [2] [µM],IC50 (lung cancer cells A549) [µM],Blood pressure [3] [mm Hg],Levels of apoA-I [4] [%],Neuronal death (P19 cells) after treatment with NMDA (P19 cells) [%],Expression of α-synuclein (α-synuclein) [%],"COX-2 protein levels (expression), percentages of inhibition compared to positive control (COX-2) [%]",Production of TNF-α in serum (TNF-α) [%],Cholesterol in serum (top number) [5] [%],Glucose in serum (bottom number) [5] [%],Triglycerides in serum (central number) [5] [%]
CCCCCC=CCC=CCCCCCCC(O)C(=O)OP(=O)(OCC)OCC (stereo not drawn) [182F1],311,236,354,198,192,−45,71,56,86,92,89,88
CCCCCC=CCC=CCCCCCCC(C)C(=O)[O-].[Na+] (stereo not drawn) [182L1],343,229,385,207,131,−32,80,67,85,89,94,93
CCCCCC=CCC=CCCCCCCC(OC=O)C(=O)OCC (stereo not drawn) [182V1],442,231,340,207,166,−17,83,81,81,94,93,93
CCC=CCC=CCC=CCCCCCCC(O)C(=O)OP(=O)(OCC)OCC (stereo not drawn) [183F1],323,354,347,203,146,−35,61,46,91,78,76,71
CCCCCC=CCC=CCC=CCCCC(O)C(=O)OP(=O)(OCC)OCC (stereo not drawn) [183F2],181,401,259,191,279,−36,52,36,86,84,85,87
CCC=CCC=CCC=CCCCCCCC(C)C(=O)[O-].[Na+] (stereo not drawn) [183L1],306,231,285,205,125,−21,76,65,86,82,85,77
CCCCCC=CCC=CCC=CCCCC(C)C(=O)[O-].[Na+] (stereo not drawn) [183L2],173,460,283,194,268,−29,73,48,91,83,92,79
CCC=CCC=CCC=CCCCCCCC(OC=O)C(=O)OCC (stereo not drawn) [183V1],326,274,320,199,152,−9,87,79,84,75,79,70
CCCCCC=CCC=CCC=CCCCC(OC=O)C(=O)OCC (stereo not drawn) [183V2],241,402,291,198,282,−18,89,68,87,84,88,92
CCCCCC=CCC=CCC=CCC=CCCC(O)C(=O)OP(=O)(OCC)OCC (stereo not drawn) [204F1],326,275,392,199,163,−46,52,41,46,76,84,81
CCCCCC=CCC=CCC=CCC=CCCC(C)C(=O)[O-].[Na+] (stereo not drawn) [204L1],332,247,326,197,188,−27,69,47,49,83,91,82
CCCCCC=CCC=CCC=CCC=CCCC(OC=O)C(=O)OCC (stereo not drawn) [204V1],352,345,326,198,161,−11,82,43,42,84,87,81
CCC=CCC=CCC=CCC=CCC=CCCC(O)C(=O)OP(=O)(OCC)OCC (stereo not drawn) [205F1],275,498,338,195,319,−44,57,47,80,71,82,83
